Results: US10538230B2, “Thiol based resin system for removal of copper ions from hydraulic fluid” (THE BOEING COMPANY, priority 2015, dated 2020)

Assay: Removal of Cu[II] ions from hydraulic fluid with thiol compounds of structure (2), ICP measurement
Conditions: Skydrol LD-4 with about 10 ppm copper (II) acetylacetate; for [Cu] T = 24 hr.: after 24 hr. contact with equimolar amount of thiol compound; for [Cu] T = 0 hr.: before addition of the thiol compound
Method: Copper (II) acetylacetate is added to a sample of hydraulic fluid (e.g., Skydrol® LD-4 (Eastman Chemical Co. (Kingsport, Tenn. [US])), though any phosphate ester hydraulic fluid is suitable) to provide a final concentration of about 10 ppm copper (II) acetylacetate in the fluid. The amount of copper (II) is measured in the solution using an Inductively Coupled Plasma Spectrometer (ICP). An equimolar amount of a thiol compound of structure (2) is added to a portion of the copper (II) acetate-hydraulic fluid solution and the solution-mixture is mixed using a vortex mixer for 1.5 minutes. The solution-mixture is allowed to stand for 24 hours and the copper (II) content present in the solution is measured using an Inductively Coupled Plasma Spectrometer (ICP). The amount of copper sequestered or complexed by the thiol compound is determined from the difference in the copper (II) concentrations before and after addition of the thiol compound.
Table 5 presents results of Copper (II) content in aliquots of hydraulic fluid (Skydrol® LD-4) containing copper (II) acetylacetate to a final concentration of about 10 ppm copper (II) acetylacetate and contacted with an equimolar amount of the indicated thiol compounds for 24 hours.

| SMILES | [Cu] T = 24 hr. [ppm] | [Cu] T = 0 hr. [ppm] |
| --- | --- | --- |
| Sc1nnc(S)s1 [I, 1,3,4-Thiadiazole-2,5-dithiol] | 7.9 | 10.8 |
| Sc1nnc(SSc2nnc(S)s2)s1 [II, 5,5′-Dithiobis(1,3,4-Thiadiazole-2(3H)-thione)] | 6.4 | 11.1 |
